Entries after “also recorded” stand apart in the source; their conditions may differ.
Experiments:
BMF expression = test: QPCR analysis of BMF expression; type: cell-based, human; settings: combined with osimertinib/trametinib, 24 hour treatment
Procedure: Cells were plated at 15 × 10^4 cells / cm^2, treated the next day, and RNA samples were extracted at specified timepoints using the RNeasy Mini kit (Qiagen). The RNA concentrations were measured with Nanodrop (Thermo Fisher Scientific) and 1 µg of total RNA was used for cDNA synthesis using the QuantiTect Reverse Transcription Kit (Qiagen). The QPCR reactions were set up in 20 µl using Taqman Gene Expression Master Mix (Applied Biosystems, cat. 4369016), Taqman Gene Expression Assays (Applied Biosystems) as per manufacturer’s instructions, and 2 µl of 1:10 diluted cDNA. The following Taqman Gene Expression Assays were used in the study: CTGF (Hs01026927_ml), ANKDR1 (Hs00173317_ml), BMF (Hs00372937 _m1), SNAI1(Hs00195591_m1), SNAI2 (Hs00161904_m1), TWIST1 (Hs00361186_m1), TWIST2 (Hs02379973_s1), ZEB1 (Hs00232783_m1), ZEB2 (Hs00207691_m1), and ACTB (Hs01060665_g1). The reactions were run in StepOne Plus Real-time PCR System (Applied Biosystems) using default reaction settings. The gene expression levels were normalized to ACTB housekeeping gene expression levels in each sample. For the analysis of BMF expression in vivo, RNA was extracted from 25-30 mg snap-frozen tumor samples using RNeasy Mini kit according to the kit protocol. Reverse transcription and gene expression analyses were performed as above.

[1] = system: EGFR-mutant NSCLC cell lines; test: Regrowth after drug washout and count of viable dormant cells; type: cell-based, human
Procedure: To determine number of dormant cells after treatment, viable cells were manually counted from the Incucyte images. A total of 10-12 wells with 3 images per well was analyzed for each condition.

EGFR-mutant NSCLC cells = test: Caspase-3/7 activity monitoring (apoptosis); type: cell-based, human; settings: combined with osimertinib/trametinib vs osimertinib/trametinib alone
Procedure: Cells were plated into 96-well plates at 3000 cells/well in 100 µl of growth medium. The next day, drugs were added onto cells in 50 µl containing CellEvent™ Caspase-3/7 Green ReadyProbes™ Reagent (Molecular Probes) as per manufacturer’s instructions (n=5-6 wells / condition). The wells were subsequently scanned every 2 hours using the Incucyte ZOOM live cell analysis system (Essen Bioscience) typically for a total of 72 hours. The acquired fluorescent signal for activated caspase-3/7 was normalized with well confluency at each timepoint (=normalized apoptosis). Peak apoptosis was determined as the highest normalized caspase-3/7 activity value during the assay.

CTGF expression = test: QPCR analysis of YAP target gene CTGF expression; type: cell-based, human; settings: 24 hour treatment; for CTGF expression in cells overexpressing TEAD1 C359S mutant: PC-9 cells transduced with TEAD1 C359S
[2] = system: YAP activity in PC-9 YAP reporter cells; test: Fluorescent YAP/Hippo pathway reporter assay (Incucyte live-cell imaging); type: cell-based, human; settings: for YAP activity (reporter) induced by osimertinib/trametinib: compound added to osimertinib/trametinib
Procedure: YAP activity -induced mCherry expression was quantified using the Incucyte ZOOM live-cell analysis system. The mCherry signal was normalized to well confluency at each time point. For simultaneous detection of YAP activity and apoptosis, the cells were plated as above, and treated in the presence of CellEvent™ Caspase-3/7 Green ReadyProbes™ Reagent (Molecular Probes) as per manufacturer’s instructions. The mCherry signal as well as the green fluorescence signal was quantified every 2 hours using Incucyte ZOOM.

YAP/TEAD interaction = YAP/TEAD interaction assay (split Gaussia luciferase); type: cell-based; settings: HEK 293T cells
Procedure: 293T cells were plated in 24-well plates and transfected with N-GLuc-YAP and C-GLuc-TEAD using TransIT-293 (Mirus Bio). The pCMV-Red Firefly Luc Vector (Life Technologies) was used as an internal control. Cells were treated with indicated concentrations of compounds or vehicle control (DMSO) in duplicates. Luciferase activity was measured by Dual-Luciferase Assay (Promega, Madison, WI) according to the manufacturer’s manual.

TEAD2 protein = TEAD2 protein (Homo sapiens, UniProt Q15562); test: Mass spectrometry analysis of covalent labeling of TEAD2 protein; type: binding; settings: 20-fold molar excess, 6 hours at 37° C.
Procedure: TEAD2 protein was incubated with DMSO or a 20-fold molar excess of MYF-01-37 for 6 hours at 37° C. Reactions were then analyzed by LC-MS using a Shimadzu autosampler and LC (Marlborough, MA) coupled to an LTQ ion trap mass spectrometer (ThermoFisher Scientific, San Jose, CA). Protein was injected onto a self packed column (0.5 mm I.D., packed 5 cm POROS 50R2 from Applied Biosystems, Framingham, MA), desalted for 4 minutes with 100% A (A=0.2 M acetic acid in water), eluted with a gradient (0-100% B in 1 minute; A=0.2 M acetic acid in water, B=0.2 M acetic acid in acetonitrile), and introduced to the mass spectrometer by electrospray ionization (spray voltage=4.5 kV). The mass spectrometer acquired full scan MS data (m/z 300-2000). […]
To identify the site of modification, labeled protein was diluted 1:1 with 100 mM ammonium bicarbonate, reduced with 10 mM DTT at 56° C. for 30 minutes, alkylated with 22.5 mM IAA for 30 minutes at room temperature, and then digested with trypsin overnight at 37° C. Tryptic peptides were desalted by C18 (SOLA, ThermoFisher Scientific), dried by vacuum centrifugation, reconstituted in 5% MeCN, 0.1% trifluoroacetic acid, and analyzed by nanoLC-ion mobility MS/MS using a NanoAcquity UPLC system (Waters Corp., Milford, MA) interfaced to a timsTOF Pro mass spectrometer (Bruker, Billerica, MA). […]

TEAD = test: Competition pulldown with biotinylated MYF-01-37; type: cell-based; settings: MDA-MB-231 cells pretreated 6 hours with 10, 25 and 50 µM
Procedure: MDA-MB-231 cells were incubated for 6 hours with 10, 25 and 50 µM MYF-01-37, followed by cell lysis. The lysates were subjected to pulldown with 50 µM biotinylated MYF-01-37 overnight, and the amount of TEAD pulled down was analyzed by western blotting.

[3] = system: EGFR-mutant NSCLC cell lines; test: Cell viability assay (Cell Titer Glo); type: cell-based, human; settings: several EGFR-mutant NSCLC cell lines
PC-9 cells = test: Long-term cell growth assay (well confluency, Incucyte); settings: continuous treatment with single-agent osimertinib (100 nM)
[4] = system: PC-9, HCC827 and HCC4006 cells
Procedure: PC-9, HCC827 and HCC4006 were plated into 6-well plates at 50 000 cells / well, and treated the next day with DMSO, 100 nM osimertinib or with the combination of 100 nM osimertinib and 30 nM trametinib in triplicate. […] After staining, cells were imaged (5 images / well), and stained cells were manually counted from the images.

Chain of TEAD2 protein (Q15562 whole entry): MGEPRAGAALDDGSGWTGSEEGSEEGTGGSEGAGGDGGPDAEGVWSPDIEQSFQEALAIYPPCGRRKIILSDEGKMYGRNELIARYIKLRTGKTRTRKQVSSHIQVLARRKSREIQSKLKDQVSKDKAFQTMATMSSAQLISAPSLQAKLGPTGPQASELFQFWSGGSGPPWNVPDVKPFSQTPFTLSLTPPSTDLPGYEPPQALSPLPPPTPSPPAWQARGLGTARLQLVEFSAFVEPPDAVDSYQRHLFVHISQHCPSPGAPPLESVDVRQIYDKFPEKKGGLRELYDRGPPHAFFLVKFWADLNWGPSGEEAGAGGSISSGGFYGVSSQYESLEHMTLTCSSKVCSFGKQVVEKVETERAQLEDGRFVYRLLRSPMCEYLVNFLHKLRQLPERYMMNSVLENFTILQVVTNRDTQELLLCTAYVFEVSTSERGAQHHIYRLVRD

For `O=c1[nH]c(-c2ccc(C(F)(F)F)cc2)nc2c1CSCC2` [XAV939], the BMF expression (BMF expression) was “significantly increased BMF expression”, the “regrowth after one week triple combination followed by two weeks osimertinib/trametinib vs three-week continuous triple combination” value ([1]; PC-9 cells) was “identical potency” and the “number of dormant cells at the time of drug washout” value ([1]; PC-9 cells, 21-day treatment combined with osimertinib/trametinib vs osimertinib/trametinib alone) was “dramatic decrease in the number of dormant cells”. For the same molecule, the “regrowth of cells after drug washout” value ([1]; three-week treatment combined with osimertinib/trametinib, then washout) was “significant reduction in regrowth”, the apoptosis (EGFR-mutant NSCLC cells) was “robust increase in apoptosis” and the “CTGF expression in cells overexpressing TEAD1 C359S mutant” value (CTGF expression) was “still able to inhibit CTGF expression”. For the same molecule, the “YAP activity (reporter) induced by osimertinib/trametinib” value [2] was “completely blocked”.

With `C=CC(=O)N1CCC(Nc2cccc(C(F)(F)F)c2C)C1` (centres unmarked) [MYF-01-37] the YAP/TEAD interaction (YAP/TEAD interaction) was “inhibition of direct YAP/TEAD interaction”, the “site of covalent modification” value (TEAD2 protein) was “targeted cysteine 380” and the “TEAD pull-down by biotinylated MYF-01-37 from whole-cell lysate” value (TEAD) was “loss of direct TEAD pull-down”. For the same molecule, the “cell viability as a single agent” value [3] was “minimal impact on cell viability; also recorded: did not demonstrate single-agent toxicity”, the BMF expression (BMF expression) was “robust increase in BMF expression” and the “dormant cells after treatment” value ([1]; PC-9 and HCC4006 cells, 10-day treatment in combination with osimertinib/trametinib vs osimertinib/trametinib alone) was “dramatic decrease in dormant cells”. The “regrowth after one week triple combination followed by two weeks osimertinib/trametinib vs three-week continuous triple combination” value ([1]; PC-9 cells) was “identical potency”, the apoptosis (EGFR-mutant NSCLC cells) was “significantly increased apoptosis” and the “CTGF expression in cells overexpressing TEAD1 C359S mutant” value (CTGF expression) was “abrogated”. The CTGF expression (CTGF expression; PC-9 cells) was “reduction in canonical YAP target gene CTGF expression” and the “YAP activity (reporter) induced by osimertinib/trametinib” value [2] was “completely suppressed the increased YAP activity”.

With `C=CC(=O)Nc1cc(Nc2nccc(-c3cn(C)c4ccccc34)n2)c(OC)cc1N(C)CCN(C)C` [osimertinib] the “time to re-colonization of wells” value (PC-9 cells) was ≤ 8 weeks, the “proportion of YAP^high cells” value ([2]; 10-day treatment) was 40% and the “proportion of cells with absent YAP signal” value ([2]; 10-day treatment) was 60%. For the same molecule, the “cells positive for SA-β-Gal activity” value [4] was “significantly smaller proportion”.

For `O=C(CCl)c1ccccc1Nc1cccc(C(F)(F)F)c1` [TED-347], the “cell viability as a single agent” value [3] was “significant toxicity”.
